Laboratory results reported in PMC12028158, “Synthesis and In Vitro Evaluation of the Anticancer Effect of Novel Phosphonium Vindoline Derivatives” (International Journal of Molecular Sciences, 2025).

Columns and labels:
Format in all cases: cell-based
M14 = test: NCI60 five-dose screen; details: Homo sapiens, M14
MDA-MB-231/ATCC = test: NCI60 one-dose screen; details: Homo sapiens, MDA-MB-231, read-out: Growth percent
HS 578T [1] = test: NCI60 five-dose screen; details: Homo sapiens, Hs-578T
HS 578T [2] = test: NCI60 one-dose screen; details: Homo sapiens, Hs-578T, read-out: Growth percent
CCRF-CEM = test: NCI60 one-dose screen; details: Homo sapiens, read-out: Growth percent
NCI-H226 = test: NCI60 five-dose screen; details: Homo sapiens, NCI-H226
COLO 205 = test: NCI60 five-dose screen; details: Homo sapiens, COLO 205
BT-549 = test: NCI60 five-dose screen; details: Homo sapiens, BT-549
T-47D = test: NCI60 one-dose screen; details: Homo sapiens, T47D, read-out: Growth percent
A549/ATCC [3] = test: NCI60 one-dose screen; details: Homo sapiens, A549, read-out: Growth percent
MOLT-4 = test: NCI60 one-dose screen; details: Homo sapiens, MOLT-4, read-out: Growth percent
HOP-92 = test: NCI60 one-dose screen; details: Homo sapiens, HOP-92, read-out: Growth percent
PC-3 = test: NCI60 one-dose screen; details: Homo sapiens, PC-3, read-out: Growth percent
SR = test: NCI60 five-dose screen; details: Homo sapiens
UACC-62 = test: NCI60 one-dose screen; details: Homo sapiens, UACC-62, read-out: Growth percent
UACC-257 = test: NCI60 one-dose screen; details: Homo sapiens, UACC-257, read-out: Growth percent
[4] = test system: 60 human tumor cell lines (NCI60); test: NCI60 five-dose screen, overall mean; details: 60 cell, read-out: Mean GI50, mean over all 60 cell lines
786-0 = test: NCI60 one-dose screen; details: Homo sapiens, 786-0, read-out: Growth percent
SF-268 = test: NCI60 five-dose screen; details: Homo sapiens, SF-268
CAKI-1 = test: NCI60 five-dose screen; details: Homo sapiens, CAKI-1
NCI/ADR-RES = test: NCI60 five-dose screen; details: Homo sapiens
SNB-75 = test: NCI60 one-dose screen; details: Homo sapiens, SNB-75, read-out: Growth percent
A549/ATCC [5] = test: NCI60 five-dose screen; details: Homo sapiens, A549
K-562 [6] = test: NCI60 five-dose screen; details: Homo sapiens, K562
A498 = test: NCI60 one-dose screen; details: Homo sapiens, A498, read-out: Growth percent
MDA-MB-468 = test: NCI60 one-dose screen; details: Homo sapiens, MDA-MB-468, read-out: Growth percent
U251 = test: NCI60 five-dose screen; details: Homo sapiens, U-251
K-562 [7] = test: NCI60 one-dose screen; details: Homo sapiens, K562, read-out: Growth percent
SK-OV-3 = test: NCI60 one-dose screen; details: Homo sapiens, SK-OV-3, read-out: Growth percent
TK-10 = test: NCI60 one-dose screen; details: Homo sapiens, TK-10, read-out: Growth percent
OVCAR-5 = test: NCI60 five-dose screen; details: Homo sapiens, OVCAR-5
NCI-H322M = test: NCI60 five-dose screen; details: Homo sapiens
HCC-2998 = test: NCI60 five-dose screen; details: Homo sapiens, HCC 2998
SN12C = test: NCI60 five-dose screen; details: Homo sapiens

| Compound | GI50 (M14) | activity at 10 µM (MDA-MB-231/ATCC) | GI50 (HS 578T [1]) | activity at 10 µM (HS 578T [2]) | activity at 10 µM (CCRF-CEM) | GI50 (NCI-H226) | activity at 10 µM (T-47D) | activity at 10 µM (A549/ATCC [3]) | activity at 10 µM (MOLT-4) | activity at 10 µM (HOP-92) | activity at 10 µM (PC-3) | activity at 10 µM (UACC-62) | activity at 10 µM (UACC-257) | activity at 10 µM (786-0) | activity at 10 µM (SNB-75) | activity at 10 µM (A498) | activity at 10 µM (MDA-MB-468) | activity at 10 µM (K-562 [7]) | activity at 10 µM (SK-OV-3) | activity at 10 µM (TK-10) | further results |
| --- | --- | --- | --- | --- | --- | --- | --- | --- | --- | --- | --- | --- | --- | --- | --- | --- | --- | --- | --- | --- | --- |
| CC[C@]12C=CCN3CC[C@@]4(c5ccc(OC)cc5N(C)[C@H]4[C@@](O)(C(=O)OC)[C@@H]1OC(=O)CCC[P+](c1ccc(F)cc1)(c1ccc(F)cc1)c1ccc(F)cc1)[C@@H]32 [9c] | 9.1 µM | 22% | 11.8 µM | 19.1% | 20% | 24.2 µM | 10.4% | 54.5% | 37.1% | -6.2% | 16.7% | -59.5% | -34.3% | 80.9% | 39.9% | 101% | -74.6% | 21.6% | 54.7% | 63.9% | GI50 (COLO 205): 4.98 µM; GI50 (BT-549): 8.13 µM; GI50 (SR): 7.45 µM; GI50 [4]: 17 µM; GI50 (SF-268): 15 µM; GI50 (CAKI-1): > 48.5 µM; GI50 (NCI/ADR-RES): > 48.5 µM; GI50 (A549/ATCC [5]): 21.5 µM; GI50 (K-562 [6]): 9.83 µM; GI50 (U251): 9.36 µM; GI50 (OVCAR-5): 20.8 µM; GI50 (NCI-H322M): > 48.5 µM; GI50 (HCC-2998): 9.53 µM; GI50 (SN12C): 14.8 µM |
| CC[C@]12C=CCN3CC[C@@]4(c5ccc(OC)cc5N(C)[C@H]4[C@@](O)(C(=O)OC)[C@@H]1OC(=O)CCC[P+](C1CCCCC1)(C1CCCCC1)C1CCCCC1)[C@@H]32 [9d] | 1.92 µM | -90.8% | 2.45 µM | -33% | -40.9% | 4.06 µM | -1.81% | 14.1% | 2.35% | -43.8% | -12% | -97.3% | -80.9% | -16.2% | -61.4% | 21.8% | -79.6% | 3.31% | -7.72% | -48.6% | GI50 (COLO 205): 0.43 µM; GI50 (BT-549): 2.44 µM; GI50 (SR): 1.35 µM; GI50 [4]: 3.8 µM; GI50 (SF-268): 3.23 µM; GI50 (CAKI-1): 16.4 µM; GI50 (NCI/ADR-RES): 35.6 µM; GI50 (A549/ATCC [5]): 3.46 µM; GI50 (K-562 [6]): 1.32 µM; GI50 (U251): 0.746 µM; GI50 (OVCAR-5): 3.19 µM; GI50 (NCI-H322M): 5.79 µM; GI50 (HCC-2998): 1.7 µM; GI50 (SN12C): 2.89 µM |
| CCC12C=CCN3CC[C@@]4(c5ccc(OC)cc5N(C)[C@H]4[C@@](O)(C(=O)OC)[C@@H]1OC(C)=O)[C@@H]32 (stereo partly shown) [compound 2, vindoline] | – | 97.7% | – | 113% | 96.5% | – | 95.7% | 93.5% | 103% | 84.2% | 88.3% | 94.7% | 98.7% | 104% | 73.1% | 99.6% | 102% | 103% | 108% | 92.1% | – |
